# Results published in US20060069132A1, “Azolecarboxamide herbicides” (priority 2004, published 2006).
# What was measured:
# woolly cupgrass = test: Test C pre-/postemergence herbicide test; type: in vivo, Eriochloa villosa
# Procedure, shortened: (§1)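 Emerged plants at the 1- to 4-leaf stage (2–18 cm), or freshly planted seeds, received test chemicals in a non-phytotoxic solvent mixture with surfactant. Response was visually scored against controls after 12 to 14 days in the greenhouse, on a 0 (no effect) to 100 (complete control) scale.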
# kochia = test: Test C pre-/postemergence herbicide test; type: in vivo, Kochia scoparia
# Procedure, shortened: as §1
# morningglory = test: Test C pre-/postemergence herbicide test; type: in vivo, Ipomoea coccinea; design: key to Plant response rating, Morningglory: 0 = no effect, 100 = complete control
# Procedure, shortened: as §1
# Surinam grass = test: Test C pre-/postemergence herbicide test; type: in vivo, Urochloa decumbens
# Procedure, shortened: as §1
# giant foxtail = test: Test A pre-/postemergence herbicide test; type: in vivo, Setaria faberi
# Procedure, shortened: (§2)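 Both application timings were run together: directed soil spray over freshly planted seeds in sandy loam, and runoff spray onto 2–10 cm seedlings. Evaluation after ~10 days in greenhouse used a 0–100 visual scale versus untreated controls.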
# pigweed = test: Test C pre-/postemergence herbicide test; type: in vivo, Amaranthus retroflexus
# Procedure, shortened: as §1
# lambsquarters = test: Test C pre-/postemergence herbicide test; type: in vivo, Chenopodium album
# Procedure, shortened: as §1
# corn = test: Test C pre-/postemergence herbicide test; type: in vivo, Zea mays
# Procedure, shortened: as §1
# velvetleaf = test: Test A pre-/postemergence herbicide test; type: in vivo, Abutilon theophrasti
# Procedure, shortened: as §2
# soybean = test: Test C pre-/postemergence herbicide test; type: in vivo, Glycine max
# Procedure, shortened: as §1
# yellow nutsedge = test: Test C pre-/postemergence herbicide test; type: in vivo, Cyperus esculentus
# Procedure, shortened: as §1
# goosegrass = test: Test C pre-/postemergence herbicide test; type: in vivo, Eleusine indica
# Procedure, shortened: as §1
# [1] = 31 g ai/ha, preemergence, scale 0 to 100
# [2] = 125 g ai/ha, scale 0 (no effect) to 100 (complete control), visual, 12 to 14 days, preemergence
# [3] = 250 g ai/ha, scale 0 to 100 (0 no effect, 100 complete control), visual, 12 to 14 days, preemergence
# [4] = Postemergence, 250 g ai/ha, scale 0 to 100, 0 no effect, 100 complete control
# [5] = postemergence, 125 g ai/ha, scale 0 to 100
# [6] = postemergence, 62 g ai/ha, scale 0 to 100
# [7] = Postemergence, 500 g ai/ha, 0 to 100 scale, 0 no effect, 100 complete control
# [8] = Postemergence, 2000 g ai/ha, 0 to 100 scale, 0 no effect, 100 complete control
# [9] = Preemergence, 500 g ai/ha, visual rating, 0 to 100 scale (0 no effect, 100 complete control)
# [10] = Preemergence, 2000 g ai/ha, visual rating, 0 to 100 scale (0 no effect, 100 complete control)
compound,measurement,setting,value
C=Cn1nc(C(C)(C)C)cc1C(=O)Nc1cccc(C(C)=NO)c1 [Compound 114],"Plant response rating, Cupgrass, Woolly",woolly cupgrass; [1],0
same,"Plant response rating, Cupgrass, Woolly",woolly cupgrass; [2],10
same,"Plant response rating, Cupgrass, Woolly",woolly cupgrass; [3],30
same,"Plant response rating, Cupgrass, Woolly",woolly cupgrass; [4],70
same,"Plant response rating, Cupgrass, Woolly",woolly cupgrass; [5],70
same,"Plant response rating, Cupgrass, Woolly",woolly cupgrass; [6],70
same,"Plant response rating, Kochia",kochia; [1],90
same,"Plant response rating (0 = no effect, 100 = complete control), Kochia","kochia; 62 g ai/ha, preemergence",90
same,"Plant response rating, Kochia",kochia; [2],90
same,"Plant response rating, Kochia",kochia; [4],100
same,"Plant response rating, Kochia",kochia; [5],80
same,"Plant response rating, Kochia",kochia; [6],80
same,"Plant response rating, Morningglory",morningglory; [1],40
same,"Plant response rating, Morningglory",morningglory; [2],60
same,"Plant response rating, Morningglory",morningglory; [5],30
same,"Plant response rating, Morningglory",morningglory; [6],10
same,"Plant response rating, Surinam Grass",Surinam grass; [1],10
same,"Plant response rating (0 = no effect, 100 = complete control), Surinam Grass","Surinam grass; 62 g ai/ha, preemergence",10
same,"Plant response rating, Surinam Grass",Surinam grass; [2],10
same,"Plant response rating, Surinam Grass",Surinam grass; [4],20
same,"Plant response rating, Surinam Grass",Surinam grass; [5],10
same,"Plant response rating, Surinam Grass",Surinam grass; [6],10
same,"Foxtail, Giant plant response rating",giant foxtail; [7],50
same,"Plant response rating, Foxtail, Giant",giant foxtail; [8],55
same,"Foxtail, Giant plant response rating",giant foxtail; [9],30
same,"Foxtail, Giant plant response rating",giant foxtail; [10],45
same,"Plant response rating, Pigweed",pigweed; [1],0
same,"Plant response rating (0 = no effect, 100 = complete control), Pigweed","pigweed; 62 g ai/ha, preemergence",100
same,"Plant response rating, Pigweed",pigweed; [2],100
same,"Plant response rating, Pigweed",pigweed; [4],100
same,"Plant response rating, Pigweed",pigweed; [5],100
same,"Plant response rating, Pigweed",pigweed; [6],100
same,"Plant response rating, Lambsquarters",lambsquarters; [1],40
same,"Plant response rating (0 = no effect, 100 = complete control), Lambsquarters","lambsquarters; 62 g ai/ha, preemergence",80
same,"Plant response rating, Lambsquarters",lambsquarters; [2],100
same,"Plant response rating, Lambsquarters",lambsquarters; [4],100
same,"Plant response rating, Lambsquarters",lambsquarters; [5],90
same,"Plant response rating, Lambsquarters",lambsquarters; [6],90
same,"Plant response rating, Corn",corn; [1],10
same,"Plant response rating (0 = no effect, 100 = complete control), Corn","corn; 62 g ai/ha, preemergence",10
same,"Plant response rating, Corn",corn; [2],10
same,"Plant response rating, Corn",corn; [3],10
same,"Plant response rating, Corn",corn; [4],40
same,"Plant response rating, Corn",corn; [5],30
same,"Plant response rating, Corn",corn; [6],30
same,Velvetleaf plant response rating,velvetleaf; [7],20
same,"Plant response rating, Velvetleaf",velvetleaf; [8],20
same,Velvetleaf plant response rating,velvetleaf; [9],35
same,Velvetleaf plant response rating,velvetleaf; [10],60
same,"Plant response rating, Soybean",soybean; [1],60
same,"Plant response rating (0 = no effect, 100 = complete control), Soybean","soybean; 62 g ai/ha, preemergence",70
same,"Plant response rating, Soybean",soybean; [4],70
same,"Plant response rating, Soybean",soybean; [5],70
same,"Plant response rating, Soybean",soybean; [6],70
same,"Plant response rating, Nutsedge, Yellow",yellow nutsedge; [1],0
same,"Plant response rating (0 = no effect, 100 = complete control), Nutsedge, Yellow","yellow nutsedge; 62 g ai/ha, preemergence",0
same,"Plant response rating, Nutsedge, Yellow",yellow nutsedge; [2],0
same,"Plant response rating, Nutsedge, Yellow",yellow nutsedge; [4],10
same,"Plant response rating, Nutsedge, Yellow",yellow nutsedge; [5],0
same,"Plant response rating, Nutsedge, Yellow",yellow nutsedge; [6],0
same,"Plant response rating, Goosegrass",goosegrass; [1],20
same,"Plant response rating (0 = no effect, 100 = complete control), Goosegrass","goosegrass; 62 g ai/ha, preemergence",40
same,"Plant response rating, Goosegrass",goosegrass; [2],80
same,"Plant response rating, Goosegrass",goosegrass; [4],70
same,"Plant response rating, Goosegrass",goosegrass; [5],60
same,"Plant response rating, Goosegrass",goosegrass; [6],60
